Data reported in ChEMBL document CHEMBL1201862, “PubChem BioAssay data set” (2004).
Activity calls are given as the source filed them.

What was measured:
[1] = molecular target: COUP transcription factor 2 (Homo sapiens, UniProt P24468); assay: Luminescence-based cell-based high throughput dose response assay to identify inhibitors of COUP-TFII (NR2F2).; assay type: functional;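 further: HEK293 cells transiently cotransfected with COUP-TFII expression vector and reporter; luciferase reporter luminescence driven by COUP-TFII from the pX2-168 reporter plasmid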
Protein skinhead-1 = molecular target: T1, Protein skinhead-1 (Caenorhabditis elegans, UniProt P34707); assay type: functional
T1 sequence (P34707 whole entry): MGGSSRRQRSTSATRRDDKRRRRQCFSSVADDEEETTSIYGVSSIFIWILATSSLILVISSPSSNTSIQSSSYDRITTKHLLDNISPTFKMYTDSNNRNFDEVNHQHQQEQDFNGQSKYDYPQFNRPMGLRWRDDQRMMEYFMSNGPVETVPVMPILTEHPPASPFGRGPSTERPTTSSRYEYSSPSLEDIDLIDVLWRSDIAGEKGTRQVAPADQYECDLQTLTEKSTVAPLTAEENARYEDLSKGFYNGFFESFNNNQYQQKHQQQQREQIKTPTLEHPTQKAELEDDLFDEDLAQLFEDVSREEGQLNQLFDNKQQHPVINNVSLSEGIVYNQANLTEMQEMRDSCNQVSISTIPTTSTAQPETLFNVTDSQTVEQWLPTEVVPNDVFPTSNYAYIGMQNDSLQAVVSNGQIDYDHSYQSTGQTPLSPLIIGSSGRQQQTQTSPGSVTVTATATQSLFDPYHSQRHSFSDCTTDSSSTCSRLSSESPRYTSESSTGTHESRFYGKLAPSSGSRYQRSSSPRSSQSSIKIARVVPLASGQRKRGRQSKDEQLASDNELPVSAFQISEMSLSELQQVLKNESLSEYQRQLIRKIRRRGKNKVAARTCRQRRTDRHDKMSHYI

cells [2] = assay type: functional, cell-based
cells [3] = assay type: functional, cell-based; remark: listed apart in the source
[4] = molecular target: T2, Trace amine-associated receptor 1 (Homo sapiens, UniProt Q96RJ0); assay: Fluorescence-based cell-based high throughput dose response assay to identify agonists of the human trace amine associated receptor 1 (TAAR1).; assay type: functional
T2 sequence (Q96RJ0 whole entry): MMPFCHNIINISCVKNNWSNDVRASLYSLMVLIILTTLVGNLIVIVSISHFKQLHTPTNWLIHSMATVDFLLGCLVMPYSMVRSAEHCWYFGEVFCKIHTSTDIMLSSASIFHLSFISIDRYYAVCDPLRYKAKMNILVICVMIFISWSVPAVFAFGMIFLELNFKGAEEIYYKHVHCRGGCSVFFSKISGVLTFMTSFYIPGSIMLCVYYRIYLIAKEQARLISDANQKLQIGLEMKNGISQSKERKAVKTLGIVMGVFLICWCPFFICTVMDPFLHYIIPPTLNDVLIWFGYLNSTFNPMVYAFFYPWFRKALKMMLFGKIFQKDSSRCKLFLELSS

[5] = molecular target: T2, Trace amine-associated receptor 1; assay: Counterscreen for agonists of the human trace amine associated receptor 1 (hTAAR1): Fluorescence-based cell-based high throughput dose response assay to identify hTAAR1 agonist that also desensitize TAAR1 receptor response.; assay type: functional
cells [6] = assay: cells
[7] = molecular target: T3, Oxysterols receptor LXR-beta (Homo sapiens, UniProt P55055); assay type: functional, cell-based
T3 sequence (P55055 whole entry): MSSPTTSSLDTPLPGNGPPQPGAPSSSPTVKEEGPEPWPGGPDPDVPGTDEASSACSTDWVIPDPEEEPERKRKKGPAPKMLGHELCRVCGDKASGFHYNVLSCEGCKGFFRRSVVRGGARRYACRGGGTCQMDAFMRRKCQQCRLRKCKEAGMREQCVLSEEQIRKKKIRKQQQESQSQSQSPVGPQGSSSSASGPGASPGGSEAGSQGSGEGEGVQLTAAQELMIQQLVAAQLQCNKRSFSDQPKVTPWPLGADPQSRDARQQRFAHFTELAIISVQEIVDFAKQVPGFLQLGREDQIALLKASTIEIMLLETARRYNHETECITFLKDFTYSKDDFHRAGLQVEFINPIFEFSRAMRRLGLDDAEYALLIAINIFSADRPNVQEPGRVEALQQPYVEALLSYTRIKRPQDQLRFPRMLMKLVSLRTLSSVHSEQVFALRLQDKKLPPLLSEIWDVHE

[8] = general cell-killing toxicity readout – plate reader, dry powder samples, cytotoxicity control for PAX8 inhibitor project, dose response (AID 743021); assay type: functional, cell-based
[9] = IGROV1 cell killing – plate reader, dry powder samples, PAX8 inhibitor project, dose response (AID 743043); assay type: functional, cell-based; settings: IGROV-1
[10] = OVCAR-3 cell viability loss – plate reader, dry powder samples, PAX8 inhibitor project, dose response (AID 743044); assay type: functional, cell-based
Paired box protein Pax-8 = Paired box protein Pax-8 (Homo sapiens, UniProt Q06710); assay: PAX8 transcriptional activity inhibition in RMG-I – RMG-I cells, luciferase, cherry-pick, dose response (AID 687027); assay type: functional, cell-based;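 further: luciferase reporter driven by Pax8 target thyroperoxidase promoter measured by SteadyGlo luminescence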
[11] = A2780 cell killing – plate reader, dry powder samples, cytotoxicity control, dose response (AID 743046); assay type: functional, cell-based
[12] = OVCAR8 cell viability loss – plate reader, dry powder samples, PAX8 project, dose response (AID 743197); assay type: functional, cell-based; settings: OVCAR-8
[13] = general mammalian cell viability loss – activator set, cherry-pick, cytotoxicity control for miR-122 modulator project, dose response (AID 720690); assay type: functional, cell-based;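 further: HEK293T human cells scored for general mammalian cytotoxicity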
[14] = anti-trypanosomal activity in BESM host cells – imaging, CA-I/72 strain, bovine embryo skeletal muscle, dry powder, dose response (AID 651885); assay type: functional, cell-based
[15] = mouse fibroblast viability loss – cell-based, cherry-pick samples, set 2, cytotoxicity control for T. cruzi growth inhibitor project, dose response (AID 651817); assay type: functional; settings: NIH3T3
[16] = molecular target: T3, Oxysterols receptor LXR-beta; assay type: functional, cell-based; remark: listed apart in the source
[17] = molecular target: Disintegrin and metalloproteinase domain-containing protein 17 (Homo sapiens, UniProt P78536); assay: inhibition of ADAM17 substrate cleavage – biochemical, quenched FRET substrate, counter-screen for ADAM10 exosite inhibitor project, dose response (AID 743253)
[18] = potency of ADAM10 substrate cleavage blockers – biochemical, QFRET, dose response (AID 743254);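 further: ADAM10 enzyme with the DM2 quenched FRET peptide as substrate; EDANS fluorescence gain as the protease cuts the substrate; inhibitor potency against ADAM10 proteolytic activity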

Chain of Paired box protein Pax-8 (Q06710 whole entry): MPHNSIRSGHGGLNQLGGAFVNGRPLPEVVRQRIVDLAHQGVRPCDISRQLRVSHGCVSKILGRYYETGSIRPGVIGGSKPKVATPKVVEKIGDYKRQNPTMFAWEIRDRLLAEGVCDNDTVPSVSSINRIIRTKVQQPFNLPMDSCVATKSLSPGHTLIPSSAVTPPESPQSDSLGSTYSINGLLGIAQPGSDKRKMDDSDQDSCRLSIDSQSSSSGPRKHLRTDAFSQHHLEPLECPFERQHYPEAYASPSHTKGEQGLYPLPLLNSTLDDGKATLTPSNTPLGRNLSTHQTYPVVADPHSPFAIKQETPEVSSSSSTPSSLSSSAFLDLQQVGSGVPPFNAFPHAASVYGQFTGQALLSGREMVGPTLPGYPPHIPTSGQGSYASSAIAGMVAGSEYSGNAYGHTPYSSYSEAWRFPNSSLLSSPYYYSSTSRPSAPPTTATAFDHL
Chain of Disintegrin and metalloproteinase domain-containing protein 17 (P78536 whole entry, the tested form may be a part): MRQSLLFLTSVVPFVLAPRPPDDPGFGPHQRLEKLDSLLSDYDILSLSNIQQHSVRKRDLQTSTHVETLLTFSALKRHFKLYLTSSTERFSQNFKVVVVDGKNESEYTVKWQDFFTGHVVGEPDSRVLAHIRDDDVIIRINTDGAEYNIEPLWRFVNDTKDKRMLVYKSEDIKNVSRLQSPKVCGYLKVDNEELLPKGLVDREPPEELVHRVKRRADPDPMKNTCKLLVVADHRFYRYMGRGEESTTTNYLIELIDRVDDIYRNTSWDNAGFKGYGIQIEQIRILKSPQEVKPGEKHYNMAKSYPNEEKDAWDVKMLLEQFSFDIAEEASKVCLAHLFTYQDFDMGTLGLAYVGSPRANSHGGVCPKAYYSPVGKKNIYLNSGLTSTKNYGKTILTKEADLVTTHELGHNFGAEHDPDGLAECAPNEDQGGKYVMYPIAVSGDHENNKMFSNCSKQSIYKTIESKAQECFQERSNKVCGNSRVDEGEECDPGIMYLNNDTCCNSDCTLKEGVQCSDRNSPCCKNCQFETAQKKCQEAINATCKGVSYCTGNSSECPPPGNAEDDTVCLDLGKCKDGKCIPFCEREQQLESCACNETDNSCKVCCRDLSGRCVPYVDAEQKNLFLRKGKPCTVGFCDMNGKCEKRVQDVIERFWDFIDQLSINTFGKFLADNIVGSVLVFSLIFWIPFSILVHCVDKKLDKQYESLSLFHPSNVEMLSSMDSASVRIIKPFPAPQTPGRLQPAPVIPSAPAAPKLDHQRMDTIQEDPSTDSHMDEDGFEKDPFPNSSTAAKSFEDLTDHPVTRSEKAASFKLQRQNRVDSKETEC
Chain of COUP transcription factor 2 (P24468 whole entry): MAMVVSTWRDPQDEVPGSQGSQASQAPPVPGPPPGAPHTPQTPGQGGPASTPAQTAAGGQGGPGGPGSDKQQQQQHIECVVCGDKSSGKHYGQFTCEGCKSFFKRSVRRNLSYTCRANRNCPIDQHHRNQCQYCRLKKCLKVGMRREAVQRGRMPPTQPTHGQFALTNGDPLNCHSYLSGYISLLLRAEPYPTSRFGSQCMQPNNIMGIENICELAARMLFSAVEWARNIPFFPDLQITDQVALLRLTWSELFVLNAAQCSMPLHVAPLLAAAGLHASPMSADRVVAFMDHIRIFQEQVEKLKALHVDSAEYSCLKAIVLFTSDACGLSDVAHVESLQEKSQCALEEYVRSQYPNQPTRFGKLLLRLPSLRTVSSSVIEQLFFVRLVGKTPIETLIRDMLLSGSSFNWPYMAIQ

In the case of Cc1ccc(F)cc1NC(=O)Cc1nn(C)c(=O)c2ccccc12, the IC50 [1] is reported as 12.7 µM (inactive) and the IC50 (Protein skinhead-1) is reported as > 100 µM (inactive).

In the case of O=C(N[C@@H](Cc1cccnc1)C(=O)N1CCC[C@H]1C(=O)NCCc1ccccc1Cl)c1ccc(Cl)c(Cl)c1, the IC50 (cells [2]) is reported as > 29.9 µM (inactive), the EC50 (cells [3]) is reported as > 29.9 µM (inactive) and the EC50 [4] is reported as 2.9 µM (active). The IC50 [5] was 2.6 µM (active).

With Cc1cc(C(=O)COC(=O)C2=NNC(=O)CC2)c(C)n1CCc1ccccc1 the IC50 (cells [2]) was > 29.9 µM (inactive), the EC50 (cells [3]) was > 29.9 µM (inactive) and the EC50 [4] was 1.58 µM (active). The IC50 [5] was 7.2 µM (active).

With CC1=NN(C(N)=S)C(=O)C1N=Nc1ccc(Br)cc1 (stereo not drawn) the EC50 (cells [6]) was > 67.6 µM (inactive) and the EC50 [7] was > 67.6 µM (inactive).

With Cc1ccccc1-c1ccc([C@@H]2[C@@H]3CN(C(=O)Nc4cccc(F)c4)C[C@H]2N3)cc1 the AC50 [8] was 22.9 µM (active), the AC50 [9] was 21.8 µM (active) and the AC50 [10] was 37.4 µM (active). For the same molecule, the AC50 (Paired box protein Pax-8) was 30.7 µM (active).

In the case of C[C@@H]1CN([C@@H](C)CO)S(=O)(=O)c2ccc(C#Cc3ccccc3F)cc2O[C@H]1CN(C)C(=O)c1ccc2c(c1)OCO2, the AC50 [9] is reported as 28.5 µM (active), the AC50 [11] is reported as 0.765 µM (active) and the AC50 [10] is reported as 6.2 µM (active). For the same molecule, the AC50 [12] was 17.7 µM (active), the AC50 (Paired box protein Pax-8) was 4.88 µM (active) and the AC50 [13] was 5.74 µM (active).

For C[C@@H]1CN([C@@H](C)CO)C(=O)c2cccc(NC(=O)c3ccncc3)c2O[C@H]1CN(C)Cc1ccncc1, the IC50 [14] was 17.3 µM (inconclusive).

For C[C@H]1CN([C@@H](C)CO)C(=O)Cc2cc(NS(=O)(=O)c3ccc(F)cc3)ccc2O[C@H]1CN(C)Cc1ccc(Cl)c(Cl)c1, the AC50 [15] was 39 µM (inactive).

For COCCNC(=O)/C(C#N)=C/c1cc(C)n(-c2ccc(C)cc2)c1C, the EC50 [16] was > 67.5 µM (inactive).

For CCCOc1ccc(NC(=O)CC2C(=O)N(Cc3ccccc3)C(=S)N2Cc2cccs2)cc1 (stereo not drawn), the IC50 [17] was > 69.6 µM (inactive) and the IC50 [18] was 44.4 µM (inactive).

In the case of CC(C)N1C[C@H](C)[C@@H](CN(C)Cc2ccccc2Cl)Oc2c(NC(=O)c3ccncc3)cccc2C1=O, the IC50 [14] is reported as 0.0201 µM (active).
